Test system: Barnyardgrass (Echinochloa crus-galli)
Assay: Effect of adjuvant on glyphosate-IPA efficacy on barnyardgrass with simulated rainfall
Type: in vivo
Settings: 0.75 wt % glyphosate-IPA without adjuvant, rainfall 2 h after application
Description: Barnyardgrass (Echinochloa crus-galli) 10 cm in height were treated with 0.75 wt % (a.i.) glyphosate, isopropylamine salt (Monsanto), either alone, or plus a spray adjuvant (0.05 and 0.1 wt % respectively). The spray was applied at 100 L/ha using a T-Jet 8002E nozzle. The plants were subjected to simulated rainfall (2.5 cm), 2 h after herbicide application, to determine the rainfastening ability of the adjuvants. Plants were evaluated at week 1 and 2 weeks after treatment, by visual observation, relative to the untreated check. A score of 0 means no plant injury, while a score of 100 indicates total control (burndown, with no regrowth).

SMILES: CC(C)N.O=C(O)CNCP(=O)(O)O [glyphosate-IPA, glyphosate, isopropylamine salt]
- Percent Control 1 WAT (1 week after treatment): 7.5d %
- Percent Control 2 WAT (2 weeks after treatment): 18.75c %

— patent US6534077B2, “Organosiloxane containing modified groups in agricultural compositions” (Crompton Corporation, priority 2000, dated 2003)
